Assay results taken from PubChem BioAssay (NCI).
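Exposure lasted 48 hours, with cells grown in 96-well plates and compounds tested at five concentrations. At the TGI there is no net growth.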

Experiments:
Assay in all cases: growth of human tumour cells (NCI), 48 h
UACC-62 melanoma = system: UACC-62 melanoma
CCRF-CEM leukemia = system: CCRF-CEM leukemia
SF-295 CNS = system: SF-295 CNS
LOX IMVI melanoma = system: LOX IMVI melanoma
MDA-MB-435 = system: MDA-MB-435
M14 melanoma = system: M14 melanoma
UACC-257 melanoma = system: UACC-257 melanoma
MALME-3M melanoma = system: MALME-3M melanoma
NCI-H460 lung = system: NCI-H460 lung
SK-MEL-2 melanoma = system: SK-MEL-2 melanoma
OVCAR-3 ovarian = system: OVCAR-3 ovarian
CAKI-1 renal = system: CAKI-1 renal
EKVX NSCLC = system: EKVX NSCLC
COLO 205 colon = system: COLO 205 colon
HS 578T breast = system: HS 578T breast
U251 CNS = system: U251 CNS
A549 NSCLC = system: A549 NSCLC
HCT-116 colon = system: HCT-116 colon
PC-3 prostate = system: PC-3 prostate
HCT-15 colon = system: HCT-15 colon
BT-549 breast = system: BT-549 breast
SK-OV-3 ovarian = system: SK-OV-3 ovarian
NCI/ADR-RES ovarian = system: NCI/ADR-RES ovarian
DU-145 prostate = system: DU-145 prostate
OVCAR-8 ovarian = system: OVCAR-8 ovarian
OVCAR-5 ovarian = system: OVCAR-5 ovarian
786-0 renal = system: 786-0 renal
KM12 colon = system: KM12 colon
ACHN renal = system: ACHN renal
TK-10 renal = system: TK-10 renal
SN12C renal = system: SN12C renal
HL-60(TB) leukemia = system: HL-60(TB) leukemia
MDA-N = system: MDA-N
HOP-92 NSCLC = system: HOP-92 NSCLC
SF-268 CNS = system: SF-268 CNS
MCF7 breast = system: MCF7 breast
SNB-19 CNS = system: SNB-19 CNS
NCI-H522 lung = system: NCI-H522 lung
RPMI-8226 leukemia = system: RPMI-8226 leukemia
OVCAR-4 ovarian = system: OVCAR-4 ovarian
HT29 colon = system: HT29 colon
SK-MEL-5 melanoma = system: SK-MEL-5 melanoma
A498 renal = system: A498 renal
MOLT-4 leukemia = system: MOLT-4 leukemia
SR leukemia = system: SR leukemia
SF-539 CNS = system: SF-539 CNS
SW-620 colon = system: SW-620 colon
IGROV1 ovarian = system: IGROV1 ovarian
MDA-MB-231 breast = system: MDA-MB-231 breast
HCC-2998 colon = system: HCC-2998 colon
T-47D breast = system: T-47D breast
SNB-75 CNS = system: SNB-75 CNS
RXF 393 renal = system: RXF 393 renal
SK-MEL-28 melanoma = system: SK-MEL-28 melanoma
K-562 leukemia = system: K-562 leukemia
NCI-H226 lung = system: NCI-H226 lung
UO-31 renal = system: UO-31 renal
NCI-H23 lung = system: NCI-H23 lung
HOP-62 NSCLC = system: HOP-62 NSCLC

Measured: TGI

C=C(C)[C@H]1C[C@@H]2O[C@@](O)(/C(C)=C\C(=O)/C=C(/C)C[C@H]3OC(=O)[C@@]24O[C@H]34)[C@@H]1O
97.6 µM: RXF 393 renal
not listed: UO-31 renal | NCI-H23 lung | HOP-62 NSCLC
> 100 µM: all other assays above

c1ccc(CCN2CCOCC2)nc1
not listed: MOLT-4 leukemia | SF-539 CNS | SNB-75 CNS
> 100 µM: all other assays above

OCC1OC2OC3C(CO)OC(OC4C(CO)OC(OC5C(CO)OC(OC6C(CO)OC(OC7C(CO)OC(OC1C(O)C2O)C(O)C7O)C(O)C6O)C(O)C5O)C(O)C4O)C(O)C3O (stereo unspecified) (tested in a mixture with another compound)
34.3 µM: SR leukemia
> 78.8 µM: SF-539 CNS
> 96.1 µM: NCI/ADR-RES ovarian
55 µM: HL-60(TB) leukemia
39.9 µM: MDA-N
40.7 µM: MDA-MB-435
97.8 µM: SK-MEL-5 melanoma
> 100 µM: all other assays above
